{"source": "paper PMC8062632", "about": "“Structural studies of phosphorylation-dependent interactions between the V2R receptor and arrestin-2” (Nature Communications, 2021)", "format_in_all_cases": "cell-based", "key": {"[1]": {"system": "wild-type V2R and V2R mutants", "assay": "arrestin2 recruitment BRET assay (V2R-Rluc / arrestin2-YFP)", "details": "HEK293 cells; different V2R mutants compared with wild-type V2R; 37 °C, 10 min", "experimental": "(§1) After 24 h of transfection, the cells were detached and distributed into 96-well plates at a density of ~25,000 cells per well. After another 24 h incubation at 37 °C, the cells were washed twice with Tyrode’s buffer (140 mM NaCl, 2.7 mM KCl, 1 mM CaCl2, 12 mM NaHCO3, 5.6 mM D-glucose, 0.5 mM MgCl2, 0.37 mM NaH2PO4, and 25 mM HEPES, pH = 7.4) and incubated with vehicle or different concentration ligands (Argipressin) at 37 °C for 10 min Luciferase substrate coelenterazine-h was added at a final concentration of 5 μM before light emissions were recorded using a Mithras LB940 microplate reader (Berthold Technologies) equipped with BRET filter sets. The BRET signal was determined by calculating the ratio of the light intensity emitted by YFP (530/20 nm) over the light intensity emitted by Rluc (485/20 nm). Source data are provided in a Source Data file.\n(§2) Supplementary Fig. 14. Surface expression and arrestin2 recruitment toward different V2R phosphor- […]\n(§3) a-b). Elisa experiments to assay the expression levels of the wild type and indicated mutants of V2R or V2R-Rluc in HEK293 cells. Data from three independent experiments (n=3) are presented as mean ± SD. Statistical differences between WT and mutations were determined by two-sided one-way ANOVA with Tukey test. “ns”: the […]\n(§4) c). The vasopressin-induced arrestin2 recruitment to different V2R phospho-deficient mutants were compared with V2R-WT, examined by BRET assay in a concentration dependent manner. n = 3 biologically independent replicates were examined for three independent experiments. Data (means ± SEM) of each mutant were normalized to […]\n(§5) maximal response of V2R-WT. d). Statistical analysis of the Emax and pEC50 of vasopressin induced arrestin2 recruitment to V2R WT or V2R […]"}, "[2]": {"system": "V2R-S357A mutant (V2Rpp-3 site)", "assay": "arrestin2 recruitment BRET assay (V2R-Rluc / arrestin2-YFP)", "details": "HEK293 cells, 37 °C, 10 min, normalized to maximal response of V2R-WT", "experimental": "as §1, §2, §3, §4, §5"}, "[3]": {"system": "V2R-S363A/S364A (V2Rpp-6-7 site)", "assay": "arrestin2 recruitment BRET assay (V2R-Rluc / arrestin2-YFP)", "details": "HEK293 cells, 37 °C, 10 min, normalized to maximal response of V2R-WT", "experimental": "as §1, §2, §3, §4, §5"}, "V2R-T360A (V2Rpp-4 site)": {"system": "V2R-T360A (V2Rpp-4 site)", "assay": "arrestin2 recruitment BRET assay (V2R-Rluc / arrestin2-YFP)", "details": "HEK293 cells, 37 °C, 10 min, normalized to maximal response of V2R-WT", "experimental": "as §1, §2, §3, §4, §5"}, "V2R-4 (V2R-T360A) [4]": {"system": "V2R-4 (V2R-T360A)", "assay": "FlAsH-BRET recruitment of MEK1 to arrestin2", "details": "HEK293 cells; for ΔBRET ratio, MEK1 recruitment to arrestin2: V2R-4, Argipressin 10 μM, 37 °C, 10 min", "experimental": "(§6) The blue ball: K357 site in arrestin2; Yellow pentagram: the position of FlAsH labeled in MEK1. […] Data are expressed as ΔBRET ratio relative values and represent the mean ± SEM of three independent experiments (n = 3). […] Source data are provided in the Source Data file.\n(§7) 24 h after transfection, the cells were detached and distributed into 96-well plates at a density of ~25,000 cells per well. After another 24 h of incubation at 37 °C, the cells were labeled FlAsH-EDT2 for 40 min at 37 °C and washed twice with Tyrode’s buffer (140 mM NaCl, 2.7 mM KCl, 1 mM CaCl2, 12 mM NaHCO3, 5.6 mM D-glucose, 0.5 mM MgCl2, 0.37 mM NaH2PO4, and 25 mM HEPES, pH = 7.4) and stimulated with or without Argipressin (final concentration of 10 μM) at 37 °C for 10 min Luciferase substrate coelenterazine-h was added at a final concentration of 5 μM before light emissions were recorded using a Mithras LB940 microplate reader (Berthold Technologies) equipped with BRET filter sets. The BRET signal was determined by calculating the ratio of the light intensity emitted by YFP ([…]) over the light intensity emitted by Rluc ([…]). Source data are provided in a Source Data file."}, "V2R-WT [5]": {"system": "V2R-WT", "assay": "FlAsH-BRET recruitment of MEK1 to arrestin2", "details": "HEK293 cells; for ΔBRET ratio, MEK1 recruitment to arrestin2: V2R-WT, Argipressin 10 μM, 37 °C, 10 min", "experimental": "as §6, §7"}, "V2R-4 (V2R-T360A) [6]": {"system": "V2R-4 (V2R-T360A)", "assay": "FlAsH-BRET recruitment of c-Raf-1 to arrestin2", "details": "HEK293 cells, Argipressin 10 μM, 37 °C, 10 min", "experimental": "(§8) The interaction between arrestin2 and c-Raf-1 was measured by the FlAsH-BRET method. […] Data are expressed as relative values of ΔBRET ratio with the mean ± SEM of three independent experiments (n = 3). […] Source data are provided in the Source. Data file.\n(§9) After 24 h of transfection, the cells were detached and distributed into 96-well plates at a density of ~25,000 cells per well. After another 24 h incubation at 37 °C, the cells were labeled FlAsH-EDT2 for 40 min at 37 °C and washed twice with Tyrode’s buffer (140 mM NaCl, 2.7 mM KCl, 1 mM CaCl2, 12 mM NaHCO3, 5.6 mM D-glucose, 0.5 mM MgCl2, 0.37 mM NaH2PO4, and 25 mM HEPES, pH = 7.4) and stimulated with or without Argipressin (final concentration of 10 μM) at 37 °C for 10 min Luciferase substrate coelenterazine-h was added at a final concentration of 5 μM before light emissions were recorded using a Mithras LB940 microplate reader (Berthold Technologies) equipped with BRET filter sets. The BRET signal was determined by calculating the ratio of the light intensity emitted by YFP ([…]) over the light intensity emitted by Rluc ([…]). Source data are provided in a Source Data file."}, "[7]": {"system": "V2R-6-7 (V2R-S363A/S364A)", "assay": "FlAsH-BRET recruitment of c-Raf-1 to arrestin2", "details": "HEK293 cells; for ΔBRET ratio, c-Raf-1 recruitment to arrestin2: V2R-6-7, Argipressin 10 μM, 37 °C, 10 min", "experimental": "as §8, §9"}, "V2R-3 (V2R-S357A)": {"system": "V2R-3 (V2R-S357A)", "assay": "FlAsH-BRET recruitment of c-Raf-1 to arrestin2", "details": "HEK293 cells, Argipressin 10 μM, 37 °C, 10 min", "experimental": "as §8, §9"}, "V2R-1 (V2R-T347A)": {"system": "V2R-1 (V2R-T347A)", "assay": "FlAsH-BRET recruitment of c-Raf-1 to arrestin2", "details": "HEK293 cells; for ΔBRET ratio, c-Raf-1 recruitment to arrestin2: V2R-1, Argipressin 10 μM, 37 °C, 10 min", "experimental": "as §8, §9"}, "V2R-WT [8]": {"system": "V2R-WT", "assay": "FlAsH-BRET recruitment of c-Raf-1 to arrestin2", "details": "HEK293 cells, Argipressin 10 μM, 37 °C, 10 min", "experimental": "as §8, §9"}}, "data": [{"substance": "vasopressin", "values": [{"measurement": "EC50 of vasopressin-induced V2R-arrestin2 interaction", "setting": "[1]", "value": "similar"}, {"measurement": "Emax of arrestin2 recruitment compared to that of wild-type V2R", "setting": "[2]", "value": 60, "unit": "%"}, {"measurement": "Emax of arrestin2 recruitment compared to that of wild-type V2R", "setting": "[3]", "value": "approximately 30%"}, {"measurement": "Emax of arrestin2 recruitment compared to that of wild-type V2R", "setting": "V2R-T360A (V2Rpp-4 site)", "value": "approximately 30%"}, {"measurement": "MEK1-arrestin2 association in response to vasopressin stimulation", "setting": "V2R-4 (V2R-T360A) [4]; T360A mutation of V2R, in words", "value": "almost abolished"}, {"measurement": "ΔBRET ratio, MEK1 recruitment to arrestin2", "setting": "V2R-4 (V2R-T360A) [4]; Data1", "value": 0}, {"measurement": "ΔBRET ratio, MEK1 recruitment to arrestin2", "setting": "V2R-4 (V2R-T360A) [4]; Data2", "value": -0.002}, {"measurement": "ΔBRET ratio, MEK1 recruitment to arrestin2", "setting": "V2R-4 (V2R-T360A) [4]; Data3", "value": -0.003}, {"measurement": "ΔBRET ratio, MEK1 recruitment to arrestin2", "setting": "V2R-WT [5]; Data1", "value": 0.008}, {"measurement": "ΔBRET ratio, MEK1 recruitment to arrestin2", "setting": "V2R-WT [5]; Data2", "value": 0.005}, {"measurement": "ΔBRET ratio, MEK1 recruitment to arrestin2", "setting": "V2R-WT [5]; Data3", "value": 0.008}, {"measurement": "recruitment of MEK1 to arrestin2", "setting": "V2R-WT [5]; wild-type V2 receptor, in words", "value": "significantly increased"}, {"measurement": "ΔBRET ratio, c-Raf-1 recruitment to arrestin2", "setting": "V2R-4 (V2R-T360A) [6]; Data1", "value": 0.001}, {"measurement": "ΔBRET ratio, c-Raf-1 recruitment to arrestin2", "setting": "V2R-4 (V2R-T360A) [6]; Data2", "value": 0.001}, {"measurement": "ΔBRET ratio, c-Raf-1 recruitment to arrestin2", "setting": "V2R-4 (V2R-T360A) [6]; Data3", "value": 0}, {"measurement": "vasopressin-induced interaction between c-Raf-1 and arrestin2", "setting": "[7]; S363A-S364A mutations in V2R, in words", "value": "abolished"}, {"measurement": "ΔBRET ratio, c-Raf-1 recruitment to arrestin2", "setting": "[7]; Data1", "value": 0}, {"measurement": "ΔBRET ratio, c-Raf-1 recruitment to arrestin2", "setting": "[7]; Data2", "value": 0.001}, {"measurement": "ΔBRET ratio, c-Raf-1 recruitment to arrestin2", "setting": "[7]; Data3", "value": 0}, {"measurement": "ΔBRET ratio, c-Raf-1 recruitment to arrestin2", "setting": "V2R-3 (V2R-S357A); Data1", "value": 0.005}, {"measurement": "ΔBRET ratio, c-Raf-1 recruitment to arrestin2", "setting": "V2R-3 (V2R-S357A); Data2", "value": 0.005}, {"measurement": "ΔBRET ratio, c-Raf-1 recruitment to arrestin2", "setting": "V2R-3 (V2R-S357A); Data3", "value": 0.006}, {"measurement": "c-Raf-1 recruited to arrestin, compared with wild-type V2 receptor", "setting": "V2R-1 (V2R-T347A); T347A mutant of the V2 receptor, in words", "value": "significantly less"}, {"measurement": "ΔBRET ratio, c-Raf-1 recruitment to arrestin2", "setting": "V2R-1 (V2R-T347A); Data1", "value": 0.006}, {"measurement": "ΔBRET ratio, c-Raf-1 recruitment to arrestin2", "setting": "V2R-1 (V2R-T347A); Data2", "value": 0.002}, {"measurement": "ΔBRET ratio, c-Raf-1 recruitment to arrestin2", "setting": "V2R-1 (V2R-T347A); Data3", "value": 0.005}, {"measurement": "ΔBRET ratio, c-Raf-1 recruitment to arrestin2", "setting": "V2R-WT [8]; Data1", "value": 0.014}, {"measurement": "ΔBRET ratio, c-Raf-1 recruitment to arrestin2", "setting": "V2R-WT [8]; Data2", "value": 0.012}, {"measurement": "ΔBRET ratio, c-Raf-1 recruitment to arrestin2", "setting": "V2R-WT [8]; Data3", "value": 0.015}]}]}
